B1: BMP4: regulates other aspects of TGF-β signaling (protein, UniProt P12644 293-408, looked up)
Bone morphogenetic protein 4: SPKHHSQRARKKNKNCRRHSLYVDFSDVGWNDWIVAPPGYQAFYCHGDCPFPLADHLNSTNHAIVQTLVNSVNSSIPKACCVPTELSAISMLYLDEYDKVVLKNYQEMVVEGCGCR
B2: WNT11: activates the non-canonical WNT pathway (protein, UniProt O96014 25-354, looked up)
Protein Wnt-11: IKWLALSKTPSALALNQTQHCKQLEGLVSAQVQLCRSNLELMHTVVHAAREVMKACRRAFADMRWNCSSIELAPNYLLDLERGTRESAFVYALSAAAISHAIARACTSGDLPGCSCGPVPGEPPGPGNRWGGCADNLSYGLLMGAKFSDAPMKVKKTGSQANKLMRLHNSEVGRQALRASLEMKCKCHGVSGSCSIRTCWKGLQELQDVAADLKTRYLSATKVVHRPMGTRKHLVPKDLDIRPVKDSELVYLQSSPDFCMKNEKVGSHGTQDRQCNKTSNGSDSCDLMCCGRGYNPYTDRVVERCHCKYHWCCYVTCRRCERTVERYVCK
B3: WNT3a: activates canonical WNT signaling (protein, UniProt P56704 19-352, looked up)
Protein Wnt-3a: SYPIWWSLAVGPQYSSLGSQPILCASIPGLVPKQLRFCRNYVEIMPSVAEGIKIGIQECQHQFRGRRWNCTTVHDSLAIFGPVLDKATRESAFVHAIASAGVAFAVTRSCAEGTAAICGCSSRHQGSPGKGWKWGGCSEDIEFGGMVSREFADARENRPDARSAMNRHNNEAGRQAIASHMHLKCKCHGLSGSCEVKTCWWSQPDFRAIGDFLKDKYDSASEMVVEKHRESRGWVETLRPRYTYFKVPTERDLVYYEASPNFCEPNPETGSFGTRDRTCNVSSHGIDGCDLLCCGRGHNARAERRREKCRCVFHWCCYVSCQECTRVYDVHTCK

Legend:
cardiac fibroblasts = experiment: Activation or knockdown of TGF-β/WNT signaling during GMT reprogramming; assay type: cell-based, mouse; settings: added during GMT reprogramming
Excerpt: It was also observed that activating TGF-β or canonical WNT signaling reversed the reprogramming efficiency gains induced by SB431542 or XAV939, respectively. […] Moreover, overexpression of constitutively active SMAD2 or SMAD3 (TGF-β signaling effectors) abolished cardiac reprogramming enhancement by SB431542 (FIG. 15). […] An ˜80% reduction of ALK4 or ALK5 (FIG. 16) enhanced direct cardiac reprogramming, similar to SB431542 (FIG. 16). […] Thus, SB431542 and XAV939 enhance cardiac reprogramming by inhibiting TGF-β and canonical WNT signaling.

[1] = system: Thy1+ neonatal cardiac fibroblasts from α-MHC-GFP transgenic mice; experiment: Drug screening of GMT cardiac reprogramming, α-MHC-GFP reporter, high-content imaging; assay type: cell-based, mouse; settings: compounds added day 1, read-out 2 weeks
Excerpt: To identify biological pathways that could be manipulated to improve cardiac reprogramming, a chemical biology approach involving an unbiased small molecule library screen was used. Cardiac reprogramming was induced with the recently described polycistronic GMT retrovirus Mef2c-P2A-Gata4-T2A-Tbx5 to ensure that each of the three transcription factors are optimally expressed, as described in detail in Wang et al. (2015) Circ. Res. 116:237-244.
Briefly, mouse cardiac fibroblasts (CF) were isolated from PO-P4 αMHC-GFP transgenic neonates using the migration method as previously described. Burridge et al. (2012) Cell Stem Cell 10:16-28; Ieda et al. (2010) Cell 142:375-386. Hearts were isolated, minced, and onto gelatin-coated plates and incubated in fibroblast explant media (20% FBS in IMOM) for one week at 37° C. The tissue was washed with 2×PBS, digested in 0.05% Trypsin for 5 minutes, and resuspended in fibroblast explant media. Tissues were filtered through a […] filter and pelleted. Pelleted cells were stained for 20 minutes with Thy-1-APC (anti-mouse/rat CD90.1 thy-1.1) (Ebioscience, San Diego, Calif., USA) and washed 2× with PBS as previously described. Ieda et al. (2010) Cell 142:375-386. Cells were sorted for APC^+ cells by fluorescence activated cell sorting (FACS) and plated onto 10 cm gelatin-coated plates and used fresh for all studies without freezing.
Direct conversion of Thy1^+ CFs to iCMs was completed as previously described in Ieda et al. (2010) Cell 142:375-386. Briefly, pMXs-Gata4, pMXs-Mef2c, pMXs-Tbx5, polycistronic pMXs-Mef2c-Gata4-Tbx5 (GMT polycistronic) or pMXs-dsRed were constructed as previously described. Ieda et al. (2010) Cell 142:375-386; Wang, L., et al. (2015) Circ Res 116, 237-244 (2015). Retroviral vectors were packaged using Fugene HD (Roche) and delivered in OptiMEM (10 μg) to 15-cm plates containing ˜80% confluent PlatE cells in fibroblast explant media, as previously described. Qian, L., et al. (2012) Nature 485, 593-59. Viral supernatant was collected 48 hours post-transfection and used to infect cardiac fibroblasts with the addition of 0.6 μg/ml polybrene (Chemicon) and added to cardiac fibroblasts at day −1. After 24 hours, the culture medium was replaced with cardiomyocyte culture medium (iCM medium (Qian, L., et al. (2013) Nature Protocols 8: 1204-1215)) at day 0, and replaced every 3-4 days. Three separate Gata4, Mef2c, and Tbx5 retroviruses were used in the initial drug screening and the in vivo experiments; however for further in vitro experiments following the initial screening the GMT polycistronic retrovirus was used.
For drug screening, Thy1^+ neonatal cardiac fibroblasts from α-MHC-GFP transgenic mice were plated in 384-well plates at a density of 2000 cells/well. Cells were reprogrammed with the GMT retrovirus as described above. At day 1 of reprogramming, the virus was replaced with iCM medium and the compounds were added to the wells using a Biomek liquid-handling robotic station to achieve a 1:1000 dilution of the drug-library concentration. Libraries of 5500 toxicologically tested compounds (e.g., LOPAC, TOCRIS, LONZA, and […]) were screened. At day 14 of reprogramming, the plates were fixed and stained for GFP and Troponin T as described under immunocytochemistry and imaged using high-throughput, high-content imaging with an INCELL system. Data were analyzed using the INCELL image-analysis package.
For immunocytochemical analysis and quantification, samples were fixed using 4% paraformaldehyde (PFA), washed twice in PBS containing 0.1% Triton X-100 (PBST), and blocked with Power Block Universal Blocking Reagent (Biogenex, # HK085-5K) for 15 minutes at room temperature as previously described. Qian et al. (2013) Nature protocols 8:1204-1215. Samples were incubated in a mixture containing primary antibodies diluted in PBST and blocking buffer (1:1) and incubated at 4° C. overnight.

[2] = system: cardiac and fibroblast genes; experiment: qRT-PCR panel of cardiac and fibroblast genes during GMT reprogramming; assay type: cell-based, mouse; settings: 2 weeks of reprogramming
Protocol: To identify which of the WNT or TGF-β inhibitor compounds most effectively improve reprogramming quality, qRT-PCR was performed for a panel of cardiac and fibroblast genes. Briefly, total RNA was isolated with a commercial kit (Direct-Zol RNA Mini-prep, Zymo Research). Reverse transcription was carried out using a mixture of oligo(dT) and random hexamer primers (SuperScript III First-Strand Synthesis SuperMix for qRT-PCR, ThermoFisher Scientific). Real-time PCR Analysis was conducted with the 7900HT FAST real-time PCR detection system (Applied Biosystems). For high-throughput, real-time PCR analysis, samples were analyzed with the 96.96 Dynamic Array IFC on the Biomark HD system (Fluidigm).

[3] = system: mouse cardiac fibroblasts; experiment: GMT reprogramming efficiency, α-MHC-GFP+ iCMs (dose, timing, FACS); assay type: cell-based
[4] = system: mouse cardiac fibroblasts; experiment: Appearance of beating cells, Troponin T staining and sarcomere organization in iCMs; assay type: cell-based; settings: after GMT infection
Protocol: For immunocytochemical analysis and quantification, samples were fixed using 4% paraformaldehyde (PFA), washed twice in PBS containing 0.1% Triton X-100 (PBST), and blocked with Power Block Universal Blocking Reagent (Biogenex, # HK085-5K) for 15 minutes at room temperature as previously described. Qian et al. (2013) Nature protocols 8:1204-1215. Samples were incubated in a mixture containing primary antibodies diluted in PBST and blocking buffer (1:1) and incubated at 4° C. overnight. The following primary antibodies were used: troponin T, cardiac isoform Ab-1, mouse monoclonal antibody (Thermo Scientific # MS-295-PO, 1:200), monoclonal anti-α-actinin sarcomeric antibody (Sigma Aldrich # A7811, 1/200), and anti-GFP (Thermo Scientific # A11120, 1:200). Samples were washed twice with PBST for 15 minutes each at room temperature and then incubated in a mixture containing secondary antibodies diluted in PBST and blocking buffer (1:1) at room temperature for 1 hour. Samples were washed three times with PBST for 15 minutes each at room temperature and visualized. Stained cells were quantified with ImageJ Imaging Analysis Software. The standard error mean was calculated for all comparisons; p<0.05 was considered statistically significant. […]

SMAD2/3 = experiment: Western blot, phosphorylation of SMAD2/3; assay type: cell-based
Protocol: (§1) Next, the mechanisms by which the small molecules regulate TGF-β and WNT signaling were investigated. Proteins from cell lysates containing 20 μg of protein were separated by SDS-PAGE and electrophoretically transferred onto polyvinylidene difluoride membranes (BioRad). Membranes were then washed in PBS, treated with blocking buffer (Li-cor), and then incubated with primary antibodies at 4° C. overnight. The following primary antibodies were used: anti-GAPDH antibody loading control (Abcam # ab9484, 0.5 μg/ml), anti-Active β-Catenin antibody (Millipore #05-665, 1:1000), anti-T-Antigen (Abcam # ab16879, 1:1000), and anti-phospho-Smad2/3 (Cell Signaling #8685S, 1:1000). Membranes were washed in PBS and incubated with the appropriate secondary antibodies (Li-Cor, IRDye […]; IRDye 800CW, 1:10,000) for 1 hour at room temperature. Membranes were washed and visualized with an Odyssey Fc Dual-mode Imaging System.

active β catenin = experiment: Western blot, active β catenin; assay type: cell-based
Protocol: as §1

| Molecule | effect on reprogramming enhanced by SB431542 and XAV939 (cardiac fibroblasts) | hit in drug screen (Z score over 5) [1] | further results |
| --- | --- | --- | --- |
| Cc1c[nH]c(-c2cnc(NCCNc3ccc(C#N)cn3)nc2-c2ccc(Cl)cc2Cl)n1 [CHIR99021] | reversed the combined effect |  |  |
| NC(=O)c1ccc(-c2nc(-c3ccc4c(c3)OCCO4)c(-c3ccccn3)[nH]2)cc1 [D4476] |  | top hits |  |
| O=C(Nc1cccc2cccnc12)c1ccc(N2C(=O)[C@@H]3[C@H](C2=O)[C@@H]2C=C[C@H]3C2)cc1 [IWR1] |  | top hits |  |
| c1ccc2c(-c3cnn4cc(-c5ccc(N6CCNCC6)cc5)cnc34)ccnc2c1 [LDN-193189] |  | top hits |  |
| NC(=O)c1ccc(-c2nc(-c3ccc4c(c3)OCO4)c(-c3ccccn3)[nH]2)cc1 [SB431542] |  | top hits | downregulating fibroblast gene expression ([2]; among TGF-β inhibitors): most efficient of the TGF-β inhibitors; timing of addition for reprogramming efficiency ([3]; GMT, SB431542 2.6 μM): most effective if added at day 1; appearance of beating cells [4]: 3 weeks; phosphorylation of SMAD2/3 (indicator of TGF-β activation) (SMAD2/3): significantly reduced |
| Oc1nc(-c2ccc(C(F)(F)F)cc2)nc2c1CSCC2 [XAV939] |  | top hits | activating cardiac gene expression ([2]; among WNT inhibitors): most efficient of the WNT inhibitors; most effective dose ([3]; GMT reprogramming efficiency): 5 µM; effect of time of addition on enhancement ([3]; GMT, XAV939): same enhancement effect when added at any time during the first 8 days; expression of active β catenin (indicator of WNT activation) (active β catenin): significantly reduced |
| O=c1c(O)c(-c2cc(O)c(O)c(O)c2)oc2cc(O)cc(O)c12 [myricetin] |  | top hits |  |
| CN1C(C(=O)Nc2ccccn2)=C(O)c2ccccc2S1(=O)=O [piroxicam] |  | top hits |  |
| TGF-β1 ligand: excess TGF-β1 ligand added during reprogramming | partially inhibited the combined effect |  | effect on reprogramming enhanced by SB431542 (cardiac fibroblasts): reversed the effect of SB431542 |
| activin |  |  | effect on reprogramming enhanced by SB431542 (cardiac fibroblasts): did not have a significant effect |
| B1 |  |  | effect on reprogramming enhanced by SB431542 (cardiac fibroblasts): did not significantly affect cardiac reprogramming |
| B2 | did not have a significant effect |  |  |
| B3 | partially blocked the effects |  |  |

— patent US20200297775A1, “ENHANCED DIRECT CARDIAC REPROGRAMMING” (The J. David Gladstone Institutes, A Testamentary Trust …, priority 2016, published 2020)
